Measured values published in article PMC11867202, “Phosphonoalamides Reveal the Biosynthetic Origin of Phosphonoalanine Natural Products and a Convergent Pathway for Their Diversification” (Angewandte Chemie (International ed. in English), 2024).
Where two headings read alike, the source gives them in different places. Each block holds one compound with its values, some of them ahead of it.

Assays:
PnaA [1] = conditions: read-out: Km (apparent); co-substrate oxaloacetate; PLP
PnaD = tested on: T1, PnaD; assay: coupled spectrophotometric assay, NADH oxidation; PnaD with PnaA; format: biochemical, Streptomyces sp. NRRL S-515; conditions: two-enzyme system, 5:1 PnaD to PnaA; co-substrate L-Asp; read-out: Km (apparent)
T1 construct: recombinant, purified from E. coli; assayed coupled to PnaA
Text: coupled spectrophotometric assay, NADH oxidation; PnaD with PnaA on PnaD | apparent steady state parameters for the conversion of PEP to L-PnAla in reactions with PnaD

PnaA [2] = tested on: T2, PnaA; assay: coupled spectrophotometric assay, NADH oxidation via PnPy reductase VlpB; format: biochemical, Streptomyces sp. NRRL S-515; conditions: reverse reaction; co-substrate oxaloacetate; PLP; varied substrate not explicitly named in main text; read-out: Km (apparent)
T2 construct: recombinant, purified from E. coli; PLP-dependent
Text: coupled spectrophotometric assay, NADH oxidation via PnPy reductase VlpB on PnaA | the reverse reaction (transamination of PnAla and OAA to PnPy and Asp)

PnaA [3] = tested on: T2, PnaA; assay: coupled spectrophotometric assay, NADH oxidation via malate dehydrogenase; format: biochemical, Streptomyces sp. NRRL S-515; conditions: co-substrate L-Asp; PLP; read-out: Km (apparent)

Compound: N[C@@H](CP(=O)(O)O)C(=O)O [PnAla]
Km (PnaA [2]): 327 ± 40 µM

Compound: O=C(O)C(=O)CP(=O)(O)O [PnPy]
Km (PnaA [3]): 4.8 ± 0.4 µM

The remaining lines, values ahead:

Km (PnaA [1]): 7.5 ± 0.7 mM
Compound: N[C@@H](CCC(=O)O)C(=O)O [Glu]

Km (PnaD): 546 ± 60 µM
Compound: C=C(OP(=O)(O)O)C(=O)O [PEP]

Km (PnaA [3]): 899 ± 97 µM
Compound: O=C(O)CCC(=O)C(=O)O [αKG]
